Measured values reported in US20250282732A1, “NOVEL ESTERS OF 1,2,3,4,4a,5,6,7,8,9,10,10a-DODECAHYDROBENZO[G]QUINOLIN-6-OL COMPOUNDS AND USES THEREOF” (INTEGRATIVE RESEARCH LABORATORIES SWEDEN AB, priority 2022, published 2025).

Tests used:
Format in all cases: in vivo, rat
[1] = test system: non-pre-treated Sprague-Dawley rats; experiment: Spontaneous locomotor activity (distance travelled); settings: for effect on motor activity patterns (distance travelled): 0.3 μmol/kg single dose, Preparation 4A SC, Example 5 PO and SC, vs saline, 0-180 min post dosing; for on-set of action (distance travelled increases after the initial decrease): time after administration
Method: Behavioral activity was measured using eight Digiscan activity monitors (RXYZM (16) TAO, Omnitech Electronics, Columbus, OH, USA), connected to an Omnitech Digiscan analyzer and an Apple Macintosh computer equipped with a digital interface board (NB DIO-24, National Instruments, USA). Each activity monitor consisted of a quadratic metal frame (W×L=40 cm×40 cm) equipped with photo beam sensors. During measurements of behavioral activity, a rat was put in a transparent acrylic cage (W×L×H, 40×40×30 cm) which in turn was placed in the activity monitor. Each activity monitor was equipped with three rows of infrared photo beam sensors, each row consisting of 16 sensors. Two rows were placed along the front and the side of the floor of the cage, at a 90° angle, and the third row was placed 10 cm above the floor to measure vertical activity. Photo beam sensors were spaced 2.5 cm apart. Each activity monitor was fitted in an identical sound and light attenuating box containing a weak house light and a fan. The computer software was written using object-oriented programming (LabVIEW™, National instruments, Austin, TX, USA). Behavioral data from each activity monitor, representing the position (horizontal center of gravity and vertical activity) of the animal at each time, were recorded at a sampling frequency of 25 Hz and collected using a custom written LABView™ application. The data from each recording session were stored and analyzed with respect to distance traveled. Each behavioral recording session lasted 180 min, starting approximately 5 min after the injection of test compound.
Compounds disclosed herein have been tested for effects on spontaneous locomotor activity in non-pre-treated Sprague-Dawley rats (based on accumulated distance travelled 0-180 min post dosing), and with the single dose of 0.3 μmol/kg (n=5, SC) compared to a control group of animals (n=5) that obtained saline (SC). The prior art compound according to Preparation 4A was administered subcutaneously (SC). The compound according to Example 5 was administered perorally (PO) and subcutaneously (SC), respectively. The unit of the distance travelled is an arbitrary unit.
The animals were placed in the motility meters immediately after administration and locomotor activity was recorded for 180 minutes. Results are presented as distance travelled for the control group (empty bar) and for the group of animals that obtained the drug (filled bar).
The animals were placed in the motility meters immediately after administration and locomotor activity was recorded for 180 minutes. Results are presented as distance travelled for the control group (empty bars) and for the group of animals that obtained the drug (filled bar).

[2] = test system: Arc mRNA; experiment: Arc mRNA tissue levels in brain regions (real-time PCR); settings: SC, 0.3 and 1 μmol/kg; 60 min after injection; vs controls
Method: (§1) Animals were killed 60 min after the injection of the drugs by decapitation.
(§2) The brains were dissected into a left and a right part. The left part was analyzed for gene expression and dissected into 4 different areas:
(§3) Limbic system (containing nucleus accumbens, most parts of the olfactory tubercle, ventral pallidum and amygdala), striatum, frontal cortex, and hippocampus.
(§4) Total RNA was prepared by RNeasy Plus Universal Tissue Mini Kit (Qiagen).
(§5) RNA pellets were dissolved in RNAse-free water and stored at −80° C. The sample concentration was determined spectrophotometrically by a Nanorop ND-1000.
A two-step reversed transcription was performed by using a SuperScript III kit (Invitrogen). 1 μg of total RNA was reversed transcribed with 5 μl 2× RT Reaction Mix, 1 μl RT Enzyme and the mix volume was adjusted to 10 μl with RNAse-free water. The samples were incubated at 25° C. for 10 mi, 50° C. for 30 mi and finally 85° C. for 5 mi. 1 U of E. coli RNase H was added following incubation at 37° C. for 20 mi and 85° C. for 5 minutes. The cDNA solution was diluted 40 times in Tris EDTA buffer solution pH8 (Merck) and stored at −20° C.
Three sequences (arc and two reference genes) were amplified together in a triplex PCR-reaction. For real-time PCR measurements: 5 μl of the cDNA reaction was amplified in a 20 μl reaction mixture containing 10 μl PerfeCTa MultiPlex qPCR SuperMix (Quantabio), 3.5 μl RNAse-free water, 0.15 μM of each primer and 0.1 μM of each probe. Real-time PCR was measured on CFX96 (Bio-Rad) using the following settings for all genes: 3 mi pre-incubation at 95° C. followed by 40 cycles of denaturation at 95° C. for 15s, annealing and elongation at 60° C. for 1 mi. […]
FIG. 5 illustrates the effects on tissue levels of Arc mRNA in four different regions of the brain (limbic regions, striatum, frontal cortex and hippocampus) after subcutaneous administration of two different compounds at two different doses as in comparison to that of corresponding control experiments. The bars in the left half of the figure represent the effects on ARC by the prior art compound according to Preparation 4A ((4aR,10aR)-1-propyl-1,2,3,4,4a,5,8,9,10,10a-decahydrobenzo[g]quinolin-6(7H)-one) and the bars in the right half of the figure represent the effects on ARC by the compound of the present disclosure according to Example 5 oxalic acid salt of ((4aR,10aR)-1-propyl-1,2,3,4,4a,5,6,7,8,9,10,10a-dodecahydrobenzo[g]quinolin-6-yl acetate (Mixture of 6R and 6S epimers). The effects on tissue levels of Arc by both of the two aforementioned compounds were measured at two different doses (0.3 μmol/kg and 1 μmol/kg) and the effect is presented as percent of control means±SEM. Statistical significance was assessed using Student's t-test (2 tailed) vs controls.

[3] = test system: Npas4; experiment: Npas4 mRNA tissue levels in brain regions (TaqMan PCR); settings: 60 min after injection; to a greater extent than the prior art compound according to Preparation 4A
Method: as §1, §2, §3, §4, §5
A two-step reversed transcription was performed by using a SuperScript III kit (Invitrogen). 1 μg of total RNA was reversed transcribed with 5 μl 2× RT Reaction Mix, 1 μl RT Enzyme and the mix volume was adjusted to 10 μl with RNAse-free water. The samples were incubated at 25° C. for 10 mi, 50° C. for 30 mi and finally 85° C. for 5 mi. […]
EGR-1 (Early growth response qRnoCEP0022872) was analyzed in duplex with the reference gene HPRT (hypoxanthine phosphoribosyltransferase qRnoCEP0050840). Npas4 (neuronal PAS domain protein4 qRnoCEP0029461) was analyzed in singleplex. The reference gene Ppia (cyclophilin A peptidyl-propyl cis-trans isomeraseqRnoCIP0050815) was also analyzed in order to quantify gene expression for genes of interest.

SMILES	effect on motor activity patterns (distance travelled) [1]	duration of action as compared to the prior art compound (trend) ([1]; 0.3 μmol/kg, increase in desired effect observed much later in the experiment)	on-set of action (distance travelled increases after the initial decrease) ([1]; 0.3 μmol/kg) [min]	tissue levels of Arc in the frontal cortex [2]	tissue levels of Arc in the limbic regions [2]	tissue levels of Npas4 in the limbic regions [3]	immediate effect on motor activity: long distance travelled already within ([1]; 0.3 μmol/kg SC) [min]
CCCN1CCC[C@@H]2CC3=C(CCCC3OC(C)=O)C[C@H]21.O=C(O)C(=O)O (stereo partly drawn) [Example 5, (4aR,10aR)-1-propyl-1,2,3,4,4a,5,6,7,8,9,10,10a-dodecahydrobenzo[g]quinolin-6-yl acetate]	induce hyperactivity	longer duration of action	35 to 40	dose-dependently increase	dose-dependently increases	increases tissue levels	
CCCN1CCC[C@@H]2CC3=C(CCCC3=O)C[C@H]21 [Preparation 4A, (4aR,10aR)-1-propyl-1,2,3,4,4a,5,8,9,10,10a-decahydrobenzo[g]quinolin-6(7H)-one, reference compound]	induce hyperactivity		20 to 25	dose-dependently increase	does not have		20 to 45
